Results published in ChEMBL document CHEMBL6109159, “Discovery of a Potent and Selective Protein Arginine Methyltransferase 5 (PRMT5) PROTAC Degrader” (J Med Chem, 2025).
Calls of active or inactive are those of the source. No cut-off for these calls is given here.

Legend:
[1] = target: T1, von Hippel-Lindau disease tumor suppressor/Protein arginine N-methyltransferase 5 (Homo sapiens, UniProt O14744+P40337); experiment: PROTAC activity at PRMT5/VHL in human MDA-MB-468 cells assessed as maximal degradation measured after 72 hrs by Western blot analysis relative to control; format: cell-based
Target sequence in this assay (O14744 whole entry, looked up): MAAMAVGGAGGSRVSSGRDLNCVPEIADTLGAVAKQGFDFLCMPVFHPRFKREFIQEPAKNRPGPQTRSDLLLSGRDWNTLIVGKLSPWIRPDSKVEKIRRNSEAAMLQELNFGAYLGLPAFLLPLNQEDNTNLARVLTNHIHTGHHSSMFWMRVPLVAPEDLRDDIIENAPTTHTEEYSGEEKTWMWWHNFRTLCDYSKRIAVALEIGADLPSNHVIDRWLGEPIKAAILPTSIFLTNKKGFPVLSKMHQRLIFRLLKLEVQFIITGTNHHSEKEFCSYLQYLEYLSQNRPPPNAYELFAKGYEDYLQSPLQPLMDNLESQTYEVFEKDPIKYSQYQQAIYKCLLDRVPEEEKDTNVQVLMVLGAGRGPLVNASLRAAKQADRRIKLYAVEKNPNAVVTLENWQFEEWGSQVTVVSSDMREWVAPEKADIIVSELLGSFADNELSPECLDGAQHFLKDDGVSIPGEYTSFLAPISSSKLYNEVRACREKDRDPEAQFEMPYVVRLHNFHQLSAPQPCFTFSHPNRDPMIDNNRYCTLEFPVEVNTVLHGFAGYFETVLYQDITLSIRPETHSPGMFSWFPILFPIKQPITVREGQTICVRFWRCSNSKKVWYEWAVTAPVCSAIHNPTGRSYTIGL
Target sequence in this assay (P40337 whole entry, looked up): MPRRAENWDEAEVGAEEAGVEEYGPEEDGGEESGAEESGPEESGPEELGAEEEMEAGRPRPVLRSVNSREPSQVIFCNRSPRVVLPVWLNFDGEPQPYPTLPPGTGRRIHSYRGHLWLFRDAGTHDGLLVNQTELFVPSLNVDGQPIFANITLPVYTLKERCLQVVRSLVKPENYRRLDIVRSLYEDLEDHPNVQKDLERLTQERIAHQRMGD

[2] = target: T1, von Hippel-Lindau disease tumor suppressor/Protein arginine N-methyltransferase 5; experiment: PROTAC activity at PRMT5/VHL in human PC-3 cells assessed as degradation at 0.004 to 2.5 uM after 7 hrs by Western blot analysis; format: cell-based; settings: dose 0.004-2.5 µM
Target sequence in this assay (O14744 whole entry, looked up): as the sequence (O14744 whole entry, looked up) above
Target sequence in this assay (P40337 whole entry, looked up): as the sequence (P40337 whole entry, looked up) above

[3] = target: T1, von Hippel-Lindau disease tumor suppressor/Protein arginine N-methyltransferase 5; experiment: PROTAC activity at PRMT5/VHL in human MDA-MB-468 cells assessed as relative protein level at 5 uM measured after 24 hrs by Western blot analysis; format: cell-based
Target sequence in this assay (O14744 whole entry, looked up): as the sequence (O14744 whole entry, looked up) above
Target sequence in this assay (P40337 whole entry, looked up): as the sequence (P40337 whole entry, looked up) above

[4] = Cmax in Swiss albino mouse plasma at 50 mg/kg, ip measured after 0.5 hrs by LC-MS/MS analysis; format: ADME, organism-based; settings: in vivo
[5] = target: T2, von Hippel-Lindau disease tumor suppressor/Methylosome protein WDR77 (Homo sapiens, UniProt Q9BQA1+P40337); experiment: PROTAC activity at MEP50/VHL in VHL KO human MDA-MB-468 cells assessed as degradation at 0.5 uM of compound after 24 hrs by Western blot analysis; format: cell-based
Target sequence in this assay (P40337 whole entry, looked up): as above
Target sequence in this assay (Q9BQA1 whole entry, looked up): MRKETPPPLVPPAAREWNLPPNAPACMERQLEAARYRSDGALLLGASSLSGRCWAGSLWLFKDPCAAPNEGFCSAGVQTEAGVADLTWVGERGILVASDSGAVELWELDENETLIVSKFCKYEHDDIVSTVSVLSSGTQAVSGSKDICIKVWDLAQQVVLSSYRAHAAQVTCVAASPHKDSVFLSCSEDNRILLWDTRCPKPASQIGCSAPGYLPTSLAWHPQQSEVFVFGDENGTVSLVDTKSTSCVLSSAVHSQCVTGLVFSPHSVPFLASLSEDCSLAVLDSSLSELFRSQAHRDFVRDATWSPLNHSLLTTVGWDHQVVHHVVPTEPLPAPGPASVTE

[6] = target: T2, von Hippel-Lindau disease tumor suppressor/Methylosome protein WDR77; experiment: PROTAC activity at MEP50/VHL in human MDA-MB-468 cells assessed as degradation at 2 uM by Western blot analysis; format: cell-based; settings: time 3-48 hrs
Target sequence in this assay (P40337 whole entry, looked up): as the sequence (P40337 whole entry, looked up) above
Target sequence in this assay (Q9BQA1 whole entry, looked up): as the sequence (Q9BQA1 whole entry, looked up) above

[7] = target: T2, von Hippel-Lindau disease tumor suppressor/Methylosome protein WDR77; experiment: PROTAC activity at MEP50/VHL in human MCF7 cells assessed as degradation at 0.5 uM after 3 days by Western blot analysis; format: cell-based; settings: time 3.0 day
Target sequence in this assay (P40337 whole entry, looked up): as the sequence (P40337 whole entry, looked up) above
Target sequence in this assay (Q9BQA1 whole entry, looked up): as the sequence (Q9BQA1 whole entry, looked up) above

PC-3 = experiment: Inhibition of sDMA (symmetric dimethylarginine) level in human PC-3 cells at 2 uM measured after 7 days by Western blot analysis; format: functional, cell-based; settings: time 7.0 day
MCF-10A [8] = experiment: PROTAC activity at MEP50/VHL in human MCF-10A cells assessed as degradation at 0.5 to 5 uM after 3 days by Western blot analysis; format: cell-based; settings: dose 0.5-5 µM, time 3.0 day
[9] = target: T1, von Hippel-Lindau disease tumor suppressor/Protein arginine N-methyltransferase 5; experiment: PROTAC activity at PRMT5/VHL in human MDA-MB-468 cells assessed as degradation at 2 uM by Western blot analysis; format: cell-based; settings: time 3-48 hrs
Target sequence in this assay (O14744 whole entry, looked up): as the sequence (O14744 whole entry, looked up) above
Target sequence in this assay (P40337 whole entry, looked up): as the sequence (P40337 whole entry, looked up) above

MDA-MB-468 [10] = experiment: Inhibition of colony formation in human MDA-MB-468 cells incubated for 16 days by crystal violet staining based analysis; format: functional, cell-based; settings: time 16.0 day
MDA-MB-231 = experiment: Growth inhibition of human MDA-MB-231 cells assessed as cell viability measured after 5 days by CCK-8 assay; format: functional, cell-based; settings: time 5.0 day
[11] = target: T2, von Hippel-Lindau disease tumor suppressor/Methylosome protein WDR77; experiment: PROTAC activity at MEP50/VHL in human MDA-MB-453 cells assessed as degradation at 5 uM after 3 days by Western blot analysis; format: cell-based; settings: time 3.0 day
Target sequence in this assay (P40337 whole entry, looked up): as above
Target sequence in this assay (Q9BQA1 whole entry, looked up): as the sequence (Q9BQA1 whole entry, looked up) above

[12] = target: T1, von Hippel-Lindau disease tumor suppressor/Protein arginine N-methyltransferase 5; experiment: PROTAC activity at PRMT5/VHL in human MCF7 cells assessed as degradation at 5 uM after 3 days by Western blot analysis; format: cell-based; settings: time 3.0 day
Target sequence in this assay (O14744 whole entry, looked up): as the sequence (O14744 whole entry, looked up) above
Target sequence in this assay (P40337 whole entry, looked up): as the sequence (P40337 whole entry, looked up) above

[13] = target: T2, von Hippel-Lindau disease tumor suppressor/Methylosome protein WDR77; experiment: PROTAC activity at MEP50/VHL in human PC-3 cells assessed as degradation at 0.004 to 2.5 uM after 7 hrs by Western blot analysis; format: cell-based; settings: dose 0.004-2.5 µM
Target sequence in this assay (P40337 whole entry, looked up): as above
Target sequence in this assay (Q9BQA1 whole entry, looked up): as the sequence (Q9BQA1 whole entry, looked up) above

[14] = target: T2, von Hippel-Lindau disease tumor suppressor/Methylosome protein WDR77; experiment: PROTAC activity at MEP50/VHL in human MCF7 cells assessed as degradation at 5 uM after 3 days by Western blot analysis; format: cell-based; settings: time 3.0 day
Target sequence in this assay (P40337 whole entry, looked up): as the sequence (P40337 whole entry, looked up) above
Target sequence in this assay (Q9BQA1 whole entry, looked up): as the sequence (Q9BQA1 whole entry, looked up) above

[15] = target: T2, von Hippel-Lindau disease tumor suppressor/Methylosome protein WDR77; experiment: PROTAC activity at MEP50/VHL in human MDA-MB-468 cells assessed as relative protein level at 0.5 uM measured after 24 hrs by Western blot analysis; format: cell-based
MCF-10A [16] = experiment: Cytotoxicity against human MCF10A cells assessed as cell viability up to 15 uM measured after 5 days by CCK-8 assay; format: toxicity, cell-based; settings: 120 h, time 5 day
MCF7 = experiment: Growth inhibition of human MCF7 cells assessed as cell viability measured after 5 days by CCK-8 assay; format: functional, cell-based; settings: time 5.0 day
[17] = target: T1, von Hippel-Lindau disease tumor suppressor/Protein arginine N-methyltransferase 5; experiment: PROTAC activity at PRMT5/VHL in VHL KO human MDA-MB-468 cells assessed as degradation at 0.5 uM of compound after 24 hrs by Western blot analysis; format: cell-based
Target sequence in this assay (O14744 whole entry, looked up): as the sequence (O14744 whole entry, looked up) above
Target sequence in this assay (P40337 whole entry, looked up): as the sequence (P40337 whole entry, looked up) above

[18] = target: T2, von Hippel-Lindau disease tumor suppressor/Methylosome protein WDR77; experiment: PROTAC activity at MEP50/VHL in human MDA-MB-453 cells assessed as degradation at 0.5 uM after 3 days by Western blot analysis; format: cell-based; settings: time 3.0 day
[19] = target: T1, von Hippel-Lindau disease tumor suppressor/Protein arginine N-methyltransferase 5; experiment: PROTAC activity at PRMT5/VHL in human MDA-MB-468 cells assessed as degradation pretreated with GSKi (EPZ015666) followed by treated at 5 uM of compound after 24 hrs by Western blot analysis; format: cell-based
MDA-MB-468 [20] = experiment: Inhibition of sDMA (symmetric dimethylarginine) level in human MDA-MB-468 cells at 2 uM measured after 7 days by Western blot analysis; format: functional, cell-based; settings: time 7.0 day
[21] = target: T1, von Hippel-Lindau disease tumor suppressor/Protein arginine N-methyltransferase 5; experiment: PROTAC activity at PRMT5/VHL in VHL KO human MDA-MB-468 cells assessed as degradation at 5 uM of compound after 24 hrs by Western blot analysis; format: cell-based
[22] = target: T2, von Hippel-Lindau disease tumor suppressor/Methylosome protein WDR77; experiment: PROTAC activity at MEP50/VHL in human MDA-MB-231 cells assessed as degradation at 5 uM after 3 days by Western blot analysis; format: cell-based; settings: time 3.0 day
[23] = PROTAC activity at PRMT5/VHL in human PNT2 cells assessed as degradation at 0.5 to 5 uM after 3 days by Western blot analysis; settings: dose 0.5-5 µM, time 3.0 day
HCC70 = experiment: Growth inhibition of human HCC70 cells assessed as cell viability measured after 5 days by CCK-8 assay; format: functional, cell-based; settings: time 5.0 day
[24] = target: T1, von Hippel-Lindau disease tumor suppressor/Protein arginine N-methyltransferase 5; experiment: PROTAC activity at PRMT5/VHL in human MDA-MB-468 cells assessed as degradation pretreated with VHL-1 followed by treated at 5 uM of compound after 24 hrs by Western blot analysis; format: cell-based
[25] = target: T1, von Hippel-Lindau disease tumor suppressor/Protein arginine N-methyltransferase 5; experiment: PROTAC activity at PRMT5/VHL in human MDA-MB-453 cells assessed as degradation at 5 uM after 3 days by Western blot analysis; format: cell-based; settings: time 3.0 day
[26] = Plasma concentration in Swiss albino mouse at 50 mg/kg, ip measured after 8 hrs by LC-MS/MS analysis; format: ADME, organism-based
[27] = target: T2, von Hippel-Lindau disease tumor suppressor/Methylosome protein WDR77; experiment: PROTAC activity at MEP50/VHL in human MDA-MB-231 cells assessed as degradation at 0.5 uM after 3 days by Western blot analysis; format: cell-based; settings: time 3.0 day
[28] = target: T2, von Hippel-Lindau disease tumor suppressor/Methylosome protein WDR77; experiment: PROTAC activity at MEP50/VHL in human MDA-MB-468 cells assessed as degradation measured after 72 hrs by Western blot analysis relative to control; format: cell-based
Target sequence in this assay (Q9BQA1 whole entry): as the sequence (Q9BQA1 whole entry, looked up) above
Target sequence in this assay (P40337 whole entry): as the sequence (P40337 whole entry, looked up) above

MDA-MB-468 [29] = experiment: Cytotoxicity against human MDA-MB-468 cells assessed as cell viability measured after 7 days by CCK-8 assay; format: functional; settings: MDA-MB-468, 168 h, time 7 day
MDA-MB-453 = experiment: Growth inhibition of human MDA-MB-453 cells assessed as cell viability measured after 5 days by CCK-8 assay; format: functional, cell-based; settings: time 5.0 day
[30] = target: T1, von Hippel-Lindau disease tumor suppressor/Protein arginine N-methyltransferase 5; experiment: PROTAC activity at PRMT5/VHL in human MDA-MB-468 cells assessed as degradation measured after 72 hrs by Western blot analysis; format: cell-based
Target sequence in this assay (O14744 whole entry): as the sequence (O14744 whole entry, looked up) above
Target sequence in this assay (P40337 whole entry): as the sequence (P40337 whole entry, looked up) above

[31] = target: T1, von Hippel-Lindau disease tumor suppressor/Protein arginine N-methyltransferase 5; experiment: PROTAC activity at PRMT5/VHL in human MDA-MB-468 cells assessed as degradation pretreated with MLN4924 neddylation inhibitor followed by treated at 5 uM of compound after 24 hrs by Western blot analysis; format: cell-based

Structure (SMILES): Cc1ncsc1-c1ccc([C@H](CC(=O)NCCOCCOCCOCCOCCOCCC(=O)N2CCC(Nc3cc(C(=O)NC[C@H](O)CN4CCc5ccccc5C4)ncn3)CC2)NC(=O)[C@@H]2C[C@@H](O)CN2C(=O)[C@@H](NC(=O)C2(F)CC2)C(C)(C)C)cc1
- Emax [1]: 86%
- Activity [2]: Active
- Activity [3]: Active
- Cmax [4]: 17.5 µM
- Activity [5]: Not active; Complete Rescue Not Observed - Due To Incomplete Vhl Ko
- Activity [6]: Time-dependent-effect
- Activity [7]: Active
- inhibition (PC-3): Active
- Activity (MCF-10A [8]): 100%
- Activity [9]: Time-dependent-effect
- Activity (MDA-MB-468 [10]): Active
- growth inhibition (GI) (MDA-MB-231): Active
- Activity [11]: Active
- Activity [12]: Active
- Activity [13]: Active
- Activity [14]: Active
- Activity [15]: Active
- Activity (MCF-10A [16]): Non-toxic
- growth inhibition (GI) (MCF7): Active
- Activity [17]: Not active; Complete Rescue Not Observed - Due To Incomplete Vhl Ko
- Activity [18]: Active
- Activity [19]: inactive
- inhibition (MDA-MB-468 [20]): Active
- Activity [21]: Not active; Complete Rescue Not Observed - Due To Incomplete Vhl Ko
- Activity [22]: Active
- Activity [23]: 100%
- growth inhibition (GI) (HCC70): Active
- Activity [24]: inactive
- Activity [25]: Active
- concentration at 8 h [26]: 0.2 µM
- Activity [27]: Active
- DC50 [28]: 11.3 nM
- GI50 (MDA-MB-468 [29]): 5600 nM
- growth inhibition (GI) (MDA-MB-453): Active
- DC50 [30]: 17.4 nM
- Activity [31]: inactive
